The text below walks through data of PMC12680189, “Aotaphenazine, a rare hydrophenazine, targets topoisomerase II with anticancer efficacy: In silico to in vitro evidence” (PLOS One, 2025).

This assay deals with Topoisomerase II (Topo II). Kind of assay: ELISA-based Topo II inhibition assay kit (Abcam), recombinant human enzyme, colorimetric. The assay is classed as biochemical. Background: An ELISA detects its analyte on a solid surface through an enzyme-linked reagent.

What is called IC50 is the concentration that gives 50% inhibition. With `O=c1oc(=O)c2c(ccc3nc4ccccc4[nH]c32)c1-c1ccccc1` [aotaphenazine], the IC50 was 45 nM.
